Results on seven molecules are retold here after patent US6649647B1, “Trioxane derivatives” (priority 1998, dated 2003).

Holding throughout (format): cell-based
For experiment [1], the system named is Rat 6 subclone of the immortalized F2408 embryo cell line (R6). As to the kind of experiment: Screening for cytotoxicity, cell count by Coulter Counter, R6 cells. The settings on record: for LD50 (Day 3) R6: day 3 after addition; for LD50 (Day 6) R6: day 6 after addition. The protocol: (§1) Compounds of the invention were screened against Rat 6 subclone of the immortalized F2408 embryo cell line, and Rat 6 (R6T24) cells transfected and transformed by a c-H-ras oncogene. The screening involved placing the R6 and R6T24 cell lines plated at 10^3 cells per well into a 12-well microtiter culture plate for 24 hours. The compounds were added at final concentrations from 0.1-100 μM, and cells were trypsized and counted by Coulter Counter at day 3 and day 6 after the addition. Untreated cells were assigned a survival value of 100%.

A further experiment has as its system DNA within the cell. As to the kind of experiment: DNA comet assay. The settings on record: cells after 3 or 6 day treatment. From the text: In this technique, cells are embedded in agarose gel on a frosted slide after 3 or 6 day treatment, the cells are then lysed and submitted to electrophoresis. The DNA was stained after electrophoresis by ethidium bromide and images of the DNA “comets” were obtained by using an image analysis software package.

Experiment [2] relates to Rat 6 (R6T24) cells transfected and transformed by a c-H-ras oncogene. Nature of the experiment: Screening for cytotoxicity, cell count by Coulter Counter, R6T24 cells. The settings on record: R6T24 cell line; for LD50 (Day 3) R6T24: day 3 after addition; for LD50 (Day 6) R6T24: day 6 after addition. On the procedure:
as §1

Experiment [3] concerns human colon cancer cell line SW 480. As to the kind of experiment: Growth inhibition assay (MTT), SW 480. The settings on record: Table VI, 6 days incubation. The protocol: (§2) As another example of evaluation of cytotoxicity, cancer cell lines were also used for a growth inhibition assay. The human colon cancer cell lines SW 480 and HT 29 and the murine melanoma cell line B16F10 were used. […] After confluent growth, the cells were trypsinated and resuspended in RPMI plus 10% FCS to a cell concentration of 50000 cells per ml in case of colon cancer cell lines and 20000 in case of B16F10. 100 μl of this cell suspension were transferred in each well of a 96 well microtiter plate and incubated for 1 day at 37° C. in a CO2-incubator. Subsequently, further 100 μl RPMI medium and 1 μl of a DMSO solution, containing the artemisinin derivatives were added. The growth inhibition was estimated after 6 days incubation at 36° C. using the MTT assay.
(§3) 25 μl MTT solution (3-(4,5-dimethylthiazol-2-yl)-2,5-diphenyltetrazolium-bromid) of a starting concentration of 5 mg/ml H2O were added and incubated at 37° C. for 5 h. Subsequently, 100 μl iso-propanol per well were added. After 15 min incubation 100 μl H2O were added. After 30 min shaking, the extinction was measured at 595 nm using a ELISA-Multiplate Reader.

Experiment [4] has as its system murine melanoma cell line B16F10. Nature of the experiment: Growth inhibition assay (MTT), B16F10. The settings on record: Table VI, 6 days incubation. On the procedure: as §2, §3
For experiment [5], the system named is human colon cancer cell line HT 29. As to the kind of experiment: Growth inhibition assay (MTT), HT 29. The settings on record: Table VI, 6 days incubation. The protocol: as §2, §3

Regarding “10α and β-[(2′-naphthylmethyl)oxy]dihydroartemisinin [Example 13]”, in experiment [1] (Table V), the “LD50 (Day 3) R6” value stood at 0.14 µM and the “LD50 (Day 6) R6” value came out at 0.037 µM. Also, the “DNA damage in the DNA comet assay” value in the experiment on DNA within the cell was “strong DNA damage”. For the same molecule, in experiment [2] (Table V), the “LD50 (Day 3) R6T24” value is 0.12 µM and the “LD50 (Day 6) R6T24” value was determined as 0.02 µM.

Regarding `CC1CCC2[C@@H](C)C(O)OC3O[C@]4(C)CCC1C32OO4` (stereo partly shown) [Dihydroartemisinin, dihydroartemisinin, reference compound], in experiment [1] (Table V), the “LD50 (Day 3) R6” value came out at 1.64 µM and the “LD50 (Day 6) R6” value came out at 0.86 µM. Besides, in experiment [1] (Table VA), the “LD50 (Day 3) R6” value worked out at 1.64 µM and the “LD50 (Day 6) R6” value is 0.86 µM. In addition, the “binding to DNA (DNA comet assay technique)” value in the experiment with DNA within the cell was “does not bind to DNA”. In addition, in experiment [2] (Table V), the “LD50 (Day 3) R6T24” value was 2.22 µM and the “LD50 (Day 6) R6T24” value worked out at 0.24 µM. Moreover, in experiment [2] (Table VA), the “LD50 (Day 3) R6T24” value was determined as 2.22 µM and the “LD50 (Day 6) R6T24” value is 0.24 µM.

As for `COc1ccc(C2OC3OC4(C)CCC5C(C)CCC(C2C)C35OO4)c(OC)c1` (stereo not shown) [Example 4, 10-(2′,4′-dimethoxyphenyl)dihydroartemisinin], the “LD50 (Day 3) R6” value in experiment [1] (Table V) and in experiment [1] (Table VA) was 1.37 µM throughout. Besides, the “LD50 (Day 6) R6” value in experiment [1] (Table V) and in experiment [1] (Table VA) was 0.29 µM each time. In addition, the “DNA damage in the DNA comet assay” value with DNA within the cell is “strong DNA damage”. Moreover, the “LD50 (Day 3) R6T24” value in experiment [2] (Table V) and in experiment [2] (Table VA) was 1.09 µM throughout. In addition, the “LD50 (Day 6) R6T24” value in experiment [2] (Table V) and in experiment [2] (Table VA) was 0.13 µM each time.

As for `C[C@@H]1CC[C@H]2[C@@H](C)C(=O)N(Cc3ccccc3F)[C@@H]3O[C@@]4(C)CC[C@@H]1[C@@]23OO4` [Example 15, 11-aza-N-(2-fluorobenzyl)artemisinin], in experiment [3], the “LD50 SW 480” value stood at 200 nM. Further, the “LD50 B16F18” value in experiment [4] was 300 nM. Besides, the “LD50 HT 29” value in experiment [5] was 1500 nM. Further, the “LD50 (Day 3) R6” value in experiment [1] (Table V) is 22.70 µM; in experiment [1] (Table VA), above 50 µM. For the same molecule, the “LD50 (Day 6) R6” value in experiment [1] (Table V) is above 50.00 µM; in experiment [1] (Table VA), above 50 µM. The results for the “LD50 (Day 3) R6T24” value in experiment [2] (Table V) and in experiment [2] (Table VA) were above 50.00 µM and 22.7 µM, respectively. Further, the “LD50 (Day 6) R6T24” value in experiment [2] (Table V) and in experiment [2] (Table VA) was 1.69 µM throughout.

Take `CC1CCC2C(CN3CCc4ccccc43)C(=O)OC3OC4(C)CCC1C32OO4` (stereo not shown) [Example 22, 16-(N-1′-indolinyl)artemisinin]: in experiment [1] (Table V), the “LD50 (Day 3) R6” value amounted to 24.77 µM and the “LD50 (Day 6) R6” value came to 29.24 µM. For the same molecule, in experiment [1] (Table VA), the “LD50 (Day 3) R6” value was determined as 25 µM and the “LD50 (Day 6) R6” value stood at 29 µM. The “DNA damage in the DNA comet assay” value in the experiment with DNA within the cell is recorded as “strong DNA damage”. Further, in experiment [2] (Table V), the “LD50 (Day 3) R6T24” value came out at 11.38 µM and the “LD50 (Day 6) R6T24” value came to 7.45 µM. In experiment [2] (Table VA), the “LD50 (Day 3) R6T24” value was determined as 12 µM and the “LD50 (Day 6) R6T24” value was 7.5 µM.

Regarding `C[C@@H]1CC[C@H]2[C@@H](C)C(Nc3ccccc3)O[C@@H]3O[C@@]4(C)CC[C@@H]1[C@]32OO4` (stereo partly shown) [Example 30], the “LD50 SW 480” value in experiment [3] worked out at 100 nM. In addition, in experiment [4], the “LD50 B16F18” value is 400 nM. Also, the “LD50 HT 29” value in experiment [5] was determined as 600 nM. Also, the “LD50 (Day 3) R6” value in experiment [1] (Table V) and in experiment [1] (Table VA) was 0.31 µM throughout. In addition, the “LD50 (Day 6) R6” value in experiment [1] (Table V) and in experiment [1] (Table VA) was 0.26 µM throughout. Besides, the “LD50 (Day 3) R6T24” value in experiment [2] (Table V) and in experiment [2] (Table VA) was 0.24 µM throughout. Further, the “LD50 (Day 6) R6T24” value in experiment [2] (Table V) and in experiment [2] (Table VA) was 0.26 µM each time.

On to `C[C@@H]1CC[C@H]2[C@@H](C)C(c3cc4ccccc4c4ccccc34)O[C@@H]3O[C@@]4(C)CC[C@@H]1[C@]32OO4` (stereo partly shown) [Example 56], for which, in experiment [3], the “LD50 SW 480” value amounted to 200 nM. Further, the “LD50 B16F18” value in experiment [4] is 300 nM. In addition, the “LD50 HT 29” value in experiment [5] is given as 300 nM. In experiment [1] (Table VA), the “LD50 (Day 3) R6” value came out at 0.38 µM and the “LD50 (Day 6) R6” value worked out at 0.26 µM. Besides, in experiment [2] (Table VA), the “LD50 (Day 3) R6T24” value turned out to be 0.24 µM and the “LD50 (Day 6) R6T24” value worked out at 0.21 µM.
